How the values were obtained:
Assay in all cases: biochemical
[1] = target: T1, panel of 374 wild-type kinases (Homo sapiens, UniProt Q9BZL6); details: read-out: % Enzyme Activity (relative to DMSO controls), kinase PKD2/PRKD2
T1 construct: purchased Reaction Biology Corporation
T1 sequence (Q9BZL6 1-878): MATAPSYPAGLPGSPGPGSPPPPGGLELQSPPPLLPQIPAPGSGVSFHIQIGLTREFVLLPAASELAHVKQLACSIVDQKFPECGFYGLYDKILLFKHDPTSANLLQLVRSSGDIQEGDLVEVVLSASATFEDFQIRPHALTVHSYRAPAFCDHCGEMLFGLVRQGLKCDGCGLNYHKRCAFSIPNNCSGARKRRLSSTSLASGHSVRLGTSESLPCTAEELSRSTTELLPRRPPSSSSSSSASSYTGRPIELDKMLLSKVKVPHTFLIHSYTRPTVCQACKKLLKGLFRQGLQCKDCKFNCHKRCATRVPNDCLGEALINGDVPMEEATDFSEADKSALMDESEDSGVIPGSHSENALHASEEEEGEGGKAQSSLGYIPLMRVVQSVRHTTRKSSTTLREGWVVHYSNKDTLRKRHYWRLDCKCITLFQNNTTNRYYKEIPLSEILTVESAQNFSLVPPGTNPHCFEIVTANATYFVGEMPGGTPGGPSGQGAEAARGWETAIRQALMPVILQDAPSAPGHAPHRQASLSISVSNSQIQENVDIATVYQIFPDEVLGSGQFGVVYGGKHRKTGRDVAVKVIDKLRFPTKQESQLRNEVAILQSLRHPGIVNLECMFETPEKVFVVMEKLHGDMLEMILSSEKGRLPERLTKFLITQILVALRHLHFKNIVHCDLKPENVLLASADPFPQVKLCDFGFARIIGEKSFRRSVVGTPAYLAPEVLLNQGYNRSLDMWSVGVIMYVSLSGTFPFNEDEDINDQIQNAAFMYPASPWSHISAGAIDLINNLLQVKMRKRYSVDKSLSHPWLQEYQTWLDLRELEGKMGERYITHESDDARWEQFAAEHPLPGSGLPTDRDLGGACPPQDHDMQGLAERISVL

[2] = target: T2, panel of 374 wild-type kinases (Homo sapiens, UniProt Q13188); details: read-out: % Enzyme Activity (relative to DMSO controls), MST2/STK3
T2 construct: purchased Reaction Biology Corporation
T2 sequence (Q13188 1-491): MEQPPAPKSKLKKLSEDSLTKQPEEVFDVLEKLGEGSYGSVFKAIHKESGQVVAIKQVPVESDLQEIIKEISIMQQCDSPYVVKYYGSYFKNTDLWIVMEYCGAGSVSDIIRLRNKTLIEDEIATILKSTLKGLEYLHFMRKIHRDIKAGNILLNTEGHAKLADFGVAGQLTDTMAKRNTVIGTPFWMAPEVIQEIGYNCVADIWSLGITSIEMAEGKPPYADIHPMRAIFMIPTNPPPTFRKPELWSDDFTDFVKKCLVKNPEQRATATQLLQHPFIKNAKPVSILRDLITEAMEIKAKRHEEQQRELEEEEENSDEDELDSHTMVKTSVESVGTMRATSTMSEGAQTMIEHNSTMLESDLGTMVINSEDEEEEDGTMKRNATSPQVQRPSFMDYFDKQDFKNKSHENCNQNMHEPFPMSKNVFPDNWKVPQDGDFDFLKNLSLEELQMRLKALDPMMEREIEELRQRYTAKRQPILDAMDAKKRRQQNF

[3] = target: T3, panel of 374 wild-type kinases (Homo sapiens, UniProt Q9Y2K2); details: read-out: % Enzyme Activity (relative to DMSO controls), kinase SIK3
T3 construct: purchased Reaction Biology Corporation

[4] = target: T4, panel of 374 wild-type kinases (Homo sapiens, UniProt O15075); details: read-out: % Enzyme Activity (relative to DMSO controls), DCAMKL1
T4 construct: purchased Reaction Biology Corporation
T4 sequence (O15075 1-740): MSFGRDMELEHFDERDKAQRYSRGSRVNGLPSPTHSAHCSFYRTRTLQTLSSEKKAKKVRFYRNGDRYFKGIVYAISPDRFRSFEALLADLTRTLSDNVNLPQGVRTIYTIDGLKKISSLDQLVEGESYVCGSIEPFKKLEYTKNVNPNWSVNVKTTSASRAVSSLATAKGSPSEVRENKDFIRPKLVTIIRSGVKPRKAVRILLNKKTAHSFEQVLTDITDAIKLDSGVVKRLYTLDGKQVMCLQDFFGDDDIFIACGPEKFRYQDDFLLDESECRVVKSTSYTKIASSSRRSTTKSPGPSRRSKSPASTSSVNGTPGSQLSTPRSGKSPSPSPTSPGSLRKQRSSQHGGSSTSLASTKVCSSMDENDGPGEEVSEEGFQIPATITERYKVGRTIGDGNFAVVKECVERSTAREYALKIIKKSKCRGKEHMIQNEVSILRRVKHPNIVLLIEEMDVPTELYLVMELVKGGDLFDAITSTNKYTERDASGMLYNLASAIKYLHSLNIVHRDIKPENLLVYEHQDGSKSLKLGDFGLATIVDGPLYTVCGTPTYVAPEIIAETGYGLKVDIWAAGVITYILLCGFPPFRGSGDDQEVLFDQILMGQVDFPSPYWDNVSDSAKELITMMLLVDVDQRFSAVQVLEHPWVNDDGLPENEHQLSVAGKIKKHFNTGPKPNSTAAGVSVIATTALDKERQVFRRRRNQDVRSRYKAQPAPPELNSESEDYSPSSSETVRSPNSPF

[5] = target: T5, panel of 374 wild-type kinases (Homo sapiens, UniProt Q9H422); details: read-out: % Enzyme Activity (relative to DMSO controls), HIPK3
T5 construct: purchased Reaction Biology Corporation

[6] = target: T6, panel of 374 wild-type kinases (Homo sapiens, UniProt Q9Y2H1); details: read-out: % Enzyme Activity (relative to DMSO controls), kinase STK38L/NDR2
T6 construct: purchased Reaction Biology Corporation
T6 sequence (Q9Y2H1 whole entry): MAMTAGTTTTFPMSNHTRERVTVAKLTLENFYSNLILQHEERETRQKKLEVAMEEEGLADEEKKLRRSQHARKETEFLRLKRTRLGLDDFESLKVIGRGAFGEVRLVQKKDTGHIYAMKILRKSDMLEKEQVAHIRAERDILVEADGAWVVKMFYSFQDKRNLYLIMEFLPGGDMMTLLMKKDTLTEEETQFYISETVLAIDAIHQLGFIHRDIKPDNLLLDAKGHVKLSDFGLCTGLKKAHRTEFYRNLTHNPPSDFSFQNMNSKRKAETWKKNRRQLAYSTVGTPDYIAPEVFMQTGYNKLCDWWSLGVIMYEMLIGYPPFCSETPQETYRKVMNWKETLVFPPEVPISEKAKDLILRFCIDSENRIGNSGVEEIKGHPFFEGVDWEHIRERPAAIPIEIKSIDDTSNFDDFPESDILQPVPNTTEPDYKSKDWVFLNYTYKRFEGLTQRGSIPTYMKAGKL

T5 sequence (Q9H422 whole entry): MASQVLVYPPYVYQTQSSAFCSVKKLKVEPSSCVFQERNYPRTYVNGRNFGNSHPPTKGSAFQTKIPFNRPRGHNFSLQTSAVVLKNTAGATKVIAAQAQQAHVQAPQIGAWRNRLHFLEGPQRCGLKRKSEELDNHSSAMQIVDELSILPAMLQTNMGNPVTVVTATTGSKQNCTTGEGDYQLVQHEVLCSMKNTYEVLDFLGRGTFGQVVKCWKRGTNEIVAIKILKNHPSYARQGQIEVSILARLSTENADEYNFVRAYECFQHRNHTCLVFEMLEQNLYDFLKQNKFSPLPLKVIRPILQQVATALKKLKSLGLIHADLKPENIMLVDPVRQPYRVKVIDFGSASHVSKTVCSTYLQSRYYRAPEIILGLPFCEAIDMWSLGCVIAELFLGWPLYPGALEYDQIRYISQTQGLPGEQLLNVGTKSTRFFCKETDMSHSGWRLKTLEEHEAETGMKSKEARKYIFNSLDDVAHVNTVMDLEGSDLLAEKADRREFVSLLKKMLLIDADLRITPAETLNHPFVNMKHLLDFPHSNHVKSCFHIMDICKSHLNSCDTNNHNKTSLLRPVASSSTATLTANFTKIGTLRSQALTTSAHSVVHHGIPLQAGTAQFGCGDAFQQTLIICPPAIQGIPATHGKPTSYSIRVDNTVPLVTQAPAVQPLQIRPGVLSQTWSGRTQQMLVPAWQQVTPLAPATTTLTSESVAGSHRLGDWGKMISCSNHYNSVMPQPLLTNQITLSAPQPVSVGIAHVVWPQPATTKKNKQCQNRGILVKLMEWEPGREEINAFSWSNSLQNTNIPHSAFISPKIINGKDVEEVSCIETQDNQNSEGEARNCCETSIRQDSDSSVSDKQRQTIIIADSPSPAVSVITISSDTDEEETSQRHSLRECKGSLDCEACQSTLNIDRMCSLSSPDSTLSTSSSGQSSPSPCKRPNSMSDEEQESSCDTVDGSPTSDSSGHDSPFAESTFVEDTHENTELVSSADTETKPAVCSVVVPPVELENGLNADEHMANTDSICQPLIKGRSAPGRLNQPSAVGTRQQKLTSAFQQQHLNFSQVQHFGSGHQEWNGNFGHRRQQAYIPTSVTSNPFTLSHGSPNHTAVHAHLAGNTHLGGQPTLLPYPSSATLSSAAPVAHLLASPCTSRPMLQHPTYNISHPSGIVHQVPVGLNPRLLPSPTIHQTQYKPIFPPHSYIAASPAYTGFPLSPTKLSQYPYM
T3 sequence (Q9Y2K2 whole entry): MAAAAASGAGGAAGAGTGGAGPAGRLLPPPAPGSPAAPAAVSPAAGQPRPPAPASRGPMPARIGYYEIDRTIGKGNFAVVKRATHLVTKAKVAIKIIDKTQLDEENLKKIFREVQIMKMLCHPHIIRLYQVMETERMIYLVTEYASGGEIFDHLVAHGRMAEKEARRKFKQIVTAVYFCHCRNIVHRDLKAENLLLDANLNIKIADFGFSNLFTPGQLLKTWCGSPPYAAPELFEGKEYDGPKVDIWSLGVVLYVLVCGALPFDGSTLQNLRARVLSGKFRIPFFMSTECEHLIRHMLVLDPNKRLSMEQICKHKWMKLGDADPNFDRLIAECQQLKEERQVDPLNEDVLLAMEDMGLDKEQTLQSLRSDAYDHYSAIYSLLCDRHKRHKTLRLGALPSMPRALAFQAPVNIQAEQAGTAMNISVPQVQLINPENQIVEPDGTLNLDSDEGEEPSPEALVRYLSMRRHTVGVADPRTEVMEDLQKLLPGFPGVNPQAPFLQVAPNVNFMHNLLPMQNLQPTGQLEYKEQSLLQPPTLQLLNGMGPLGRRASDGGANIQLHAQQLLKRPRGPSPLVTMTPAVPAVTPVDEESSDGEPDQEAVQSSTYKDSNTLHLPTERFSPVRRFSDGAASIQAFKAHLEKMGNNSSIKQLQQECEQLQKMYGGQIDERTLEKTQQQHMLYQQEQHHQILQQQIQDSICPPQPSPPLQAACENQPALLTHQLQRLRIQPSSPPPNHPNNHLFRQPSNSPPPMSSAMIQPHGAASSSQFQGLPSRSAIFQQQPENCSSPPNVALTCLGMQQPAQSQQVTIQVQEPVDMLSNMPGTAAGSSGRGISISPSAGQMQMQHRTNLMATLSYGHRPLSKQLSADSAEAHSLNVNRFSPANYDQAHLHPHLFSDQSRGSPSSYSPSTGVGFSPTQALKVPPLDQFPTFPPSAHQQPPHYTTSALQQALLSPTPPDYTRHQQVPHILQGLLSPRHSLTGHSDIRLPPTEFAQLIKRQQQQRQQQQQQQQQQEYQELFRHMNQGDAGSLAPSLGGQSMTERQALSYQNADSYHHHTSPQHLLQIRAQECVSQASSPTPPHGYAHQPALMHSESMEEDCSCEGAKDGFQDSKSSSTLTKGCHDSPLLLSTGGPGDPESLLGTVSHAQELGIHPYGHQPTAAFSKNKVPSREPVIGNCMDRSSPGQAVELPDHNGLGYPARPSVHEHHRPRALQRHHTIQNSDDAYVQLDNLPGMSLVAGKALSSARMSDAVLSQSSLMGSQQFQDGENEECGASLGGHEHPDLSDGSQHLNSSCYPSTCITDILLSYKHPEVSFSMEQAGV

Row | SMILES | remaining activity at 10 µM ([1]; 10 uM) | remaining activity at 10 µM ([2]; 10 uM) | remaining activity at 10 µM ([3]; 10 uM) | remaining activity at 10 µM ([4]; 10 uM) | remaining activity at 10 µM ([5]; 10 uM) | remaining activity at 10 µM ([6]; 10 uM) | remaining activity at 5 µM [1] | remaining activity at 5 µM [2] | remaining activity at 5 µM [3] | remaining activity at 5 µM [4] | remaining activity at 5 µM [5] | remaining activity at 5 µM [6]
1 | Cc1sc(C(=O)NC2COC2)cc1-n1cc(NC(=O)Nc2c(F)cccc2Cl)cn1 [Compound 27, 4-(4-(3-(2-chloro-6-fluorophenyl)ureido)-1H-pyrazol-1-yl)-5-methyl-N-(oxetan-3-yl)thiophene-2-carboxamide] | 95.7% | 93.9% | 86.9% | 67.2% | 88.5% | 95.1% |  |  |  |  |  | 
2 | O=C(Nc1cnn(-c2csc(C(=O)NC3COC3)c2)c1)Nc1c(F)cccc1Cl [Compound 25, 4-(4-(3-(2-chloro-6-fluorophenyl)ureido)-1H-pyrazol-1-yl)-N-(oxetan-3-yl)thiophene-2-carboxamide] |  |  |  |  |  |  | 102% | 93.2% | 94.5% | 84.2% | 98.8% | 94.8%
3 | O=C(Nc1cnn(-c2csc(C(=O)NC3COC3)c2)c1)Nc1ccccc1Cl [Compound 17, 4-(4-(3-(2-chlorophenyl)ureido)-1H-pyrazol-1-yl)-N-(oxetan-3-yl)thiophene-2-carboxamide] |  |  |  |  |  |  | 94.9% | 120% | 92.4% | 99.2% | 97.6% | 103%

Reference: patent publication US20240246942A1, “KINASE INHIBITORS FOR THE TREATMENT OF NEURODEGENERATIVE DISEASES” (priority 2020, published 2024)
